In PMC11671014 (PLOS Pathogens, 2024):
Where “and” joins values, the source holds several entries; their conditions need not be identical. Identical values can stand only once. Like-named read-outs stand apart in the source and are kept apart here.

Tests used:
[1] = Blood exposure in the P. falciparum infected SCID mouse model; assay type: in vivo, NODscidIL2Rγ^null mice engrafted with human RBCs; details: for Cmax / Tmax / AUC(0-t): female, mouse, whole blood, po
Method: The model using P. falciparum Pf3D7^0087/N9 in NODscidIL2Rγ^null mice engrafted with human RBCs was adapted from a previously described procedure. Female NODscidIL2Rγ^null mice were purchased from Charles River (Germany). Briefly, two engrafted mice/dosing group (females, 20–22 g) were infected intravenously with 2 x 10^7 P. falciparum (Pf3D7^0087/N9) on day 0. The antimalarial efficacy was assessed following administration (p.o.) of 100 or 200 mg/kg of compound or of 4 daily doses of 50 mg/kg, initiated on day 3 post-infection. The effect on blood parasitemia was measured by microscopic analysis of Giemsa-stained blood smears (on days 3, 4, 5, 6 and 7 post-infection). Mice were euthanized on day 7. Animal were monitored for symptoms of acute toxicity, including decreased activity, sunken flanks, ataxia and blood in faeces.
On day 3, blood samples (20 μL) were obtained at time points up to 24 h after the first administration. Protein was precipitated with acetonitrile and the remaining compound was assessed by LC-MS/MS in the selected reaction monitoring mode using HESI ionization in positive ion mode.

[2] = system: Pf3D7-pfs16-CBG99 gametocytes, immature (stage II/III) and mature (stage V); test: Gametocyte killing assay (luciferase); assay type: cell-based; details: Plasmodium falciparum, 48 h
Method: Gametocytogenesis was induced on a tightly synchronised (>97% rings) asexual parasite culture (Pf3D7-pfs16-CBG99 (kind gift from Pietro Alano), 0.5% parasitemia and 6% hematocrit) with a combination of nutrient starvation and a decrease in hematocrit, as previously described. For immature gametocytes (>90% stage II/III), cultures were exposed to 50 mM N-acetyl glucosamine (NAG) on days 1–4 to eliminate residual asexual parasites and harvested at days 5–6. For mature (>95% stage V) gametocytes, NAG treatment occurred from days 3–7 and harvest at day 13. Stage II/III and V gametocyte cultures (2 % gametocytaemia 1.5 % haematocrit, 150 μL/well) were exposed to compounds and incubated at 37°C for 48 h under hypoxic conditions, after which luciferase activity was determined with a non-lysing D-luciferin substrate (1mM in 0.1M citrate buffer, pH 5.5, 100 μL) and bioluminescence was detected with a 2 s integration time with a GloMax-Multi Detection System with Instinct software.

[3] = system: P. falciparum liver stage schizont (NF135); test: Liver stage schizont assay in primary human hepatocytes (NF135); assay type: cell-based; details: Plasmodium falciparum, Hepatocyte, 96 h, four days
Method: (§1) Activity against liver stage parasites was performed using a modification of published procedures. Briefly, cryopreserved human primary hepatocytes (NF175: H1500.H15B+ Lot No. HC0-6, TebuBio or NF135: F00995-P Lot No. IRZ, BioIVT) were thawed and seeded at 18,000 cells per well in collagen-coated 384-well microtiter plates in medium containing 10% heat inactivated fetal bovine serum (hiFBS). Cells were cultured at 37°C in 5% CO2. For NF175, medium was replaced by fresh medium containing 10% hiFBS, 5 h post plating. For NF135, medium was replaced by medium containing 0.2% BSA, 24 h post plating. 48 h post plating, salivary glands from Plasmodium-NF175 or NF135-infected Anopheles stephensi mosquitoes were dissected, added to the hepatocytes (10,000 per well/ NF175; or 12,500 per well/ NF135) and allowed to infect for 3 hours. Sporozoites were then aspirated, and compounds diluted in medium containing 10% hiFBS or 0.2% BSA, were added to the hepatocytes. Medium containing 10% hiFBS or 0.2% BSA and compounds was refreshed daily for four days. Hepatocytes were fixed with ice-cold methanol and samples were blocked with 10% hiFBS in PBS. Schizonts were stained with rabbit anti-HSP70 in 10% hiFBS for 1–2 h followed by incubation with a mixture of secondary goat anti-rabbit AlexaFluor 594 antibody and 4′,6-diamidine-2′-phenylindole dihydrochloride (DAPI) in 10% hiFBS for 30 min. Samples were washed with PBS containing 0.05% Tween 20 between different steps. Cells were imaged on a PicoExpress high content imager, and images were analysed automatically using CellReporterXpress software. Data were analysed by logistic regression using a four-parameter (Hill equation) model and a least-squares method to find the best fit.

[4] = biological target: Atg7 (autophagy-related protein-7) (Homo sapiens, UniProt O95352); test: ATG7 E1-E2 transthiolation HTRF assay (GABARAP); assay type: biochemical; details: read-out: ATG7 IC50 HTRF RH-GABARAP
Sequence of Atg7 (autophagy-related protein-7) (O95352 whole entry): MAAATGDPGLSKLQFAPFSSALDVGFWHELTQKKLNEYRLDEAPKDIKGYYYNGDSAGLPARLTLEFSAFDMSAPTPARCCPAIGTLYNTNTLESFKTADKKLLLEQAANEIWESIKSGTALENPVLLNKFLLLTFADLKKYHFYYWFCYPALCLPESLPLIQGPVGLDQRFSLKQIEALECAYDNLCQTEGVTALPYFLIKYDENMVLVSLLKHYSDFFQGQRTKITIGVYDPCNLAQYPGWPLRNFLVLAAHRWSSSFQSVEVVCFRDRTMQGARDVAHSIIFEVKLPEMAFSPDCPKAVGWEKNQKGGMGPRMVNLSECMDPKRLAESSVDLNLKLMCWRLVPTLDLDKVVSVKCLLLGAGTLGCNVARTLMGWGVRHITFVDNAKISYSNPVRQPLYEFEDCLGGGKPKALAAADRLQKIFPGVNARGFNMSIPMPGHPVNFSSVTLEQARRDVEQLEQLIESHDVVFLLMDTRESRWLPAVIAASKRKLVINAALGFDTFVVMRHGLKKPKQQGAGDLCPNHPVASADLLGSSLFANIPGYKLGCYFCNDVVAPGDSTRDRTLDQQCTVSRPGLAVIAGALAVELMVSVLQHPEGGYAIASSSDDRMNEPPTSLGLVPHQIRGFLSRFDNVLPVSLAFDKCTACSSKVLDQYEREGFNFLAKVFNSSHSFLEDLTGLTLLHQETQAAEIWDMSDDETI
Excerpt: An Homogeneous Time-Resolved Fluorescence (HTRF) enzyme assay was employed to evaluate compound activity against ATG7 as previously described. In this assay, a Flag-tagged ATG8 homolog (GABA type A receptor-associated protein; GABARAP) is activated by ATG7 and then transthiolated to a GST-tagged E2 (ATG3). The product of the enzyme reaction, Flag-GABARAP-ATG3-GST, is quantified by measuring FRET between Europium-Cryptate labelled monoclonal anti-Flag M2 (FLAG M2-Eu cryptate; Revvity, Cat# 61FG2KLB) and […] (Anti-GST IgG conjugated to SureLight-Allophycocyanin) (Revvity, Cat# AD0059G)). The activation and transthiolation of ubiquitin by UAE, activation and transthiolation of NEDD8 by NAE and activation and transthiolation of SUMO by SAE were all assayed in a similar fashion with appropriately tagged ubiquitin-like proteins and E2 conjugating enzymes as described.

[5] = system: P. falciparum liver stage schizont (NF175); test: Liver stage schizont assay in primary human hepatocytes (NF175); assay type: cell-based; details: Plasmodium falciparum, Hepatocyte, 96 h, four days
Method: as §1, with “Hepatocytes were fixed with ice-cold methanol and samples were blocked with 10% hiFBS in PBS. Schizonts were stained with rabbit anti-HSP70 in 10% hiFBS for 1–2 h followed by incubation with a mixture of secondary goat anti-rabbit AlexaFluor 594 antibody and 4′,6-diamidine-2′-phenylindole dihydrochloride (DAPI) in 10% hiFBS for 30 min. Samples were washed with PBS containing 0.05% Tween 20 between different steps.” left out

[6] = 1 x 100 mg/kg p.o., mice M1, M2
[7] = 1 x 200 mg/kg p.o., mice M3, M4
[8] = 4 days x 50 mg/kg p.o., after first dose, blood
[9] = 4 days x 50 mg/kg p.o., mice M1, M2
[10] = read-out: Early stage gametocytes IC50
[11] = read-out: Mature stage gametocytes IC50

CC(C)c1nn([C@@H]2O[C@H](COS(N)(=O)=O)[C@@H](O)[C@H]2O)c2ncnc(N)c12 [ML471, ((2R,3S,4R,5R)-5-(4-amino-3-isopropyl-1H-pyrazolo[3,4-d]pyrimidin-1-yl)-3,4-dihydroxytetrahydrofuran-2-yl)methyl sulfamate]
AUC0-120h/dose (mean) ([1]; 1 x 100 mg/kg p.o., blood): 2,500 (h*ng/mL)/(mg/kg) | Cmax/dose (mean) ([1]; 1 x 100 mg/kg p.o., blood): 33.5 (ng/mL)/(mg/kg) | AUC0-120h (individual mice) [1, 6]: 260,000 h*ng/mL | AUC0-120h/dose (individual mice) [1, 6]: 2,390 (h*ng/mL)/(mg/kg) and 2,600 (h*ng/mL)/(mg/kg) | Cmax (individual mice) [1, 6]: 3,600 ng/mL | Cmax/dose (individual mice) [1, 6]: 31 (ng/mL)/(mg/kg) and 36 (ng/mL)/(mg/kg) | AUC0-120h/dose (mean) ([1]; 1 x 200 mg/kg p.o., blood): 1,070 (h*ng/mL)/(mg/kg) | Cmax/dose (mean) ([1]; 1 x 200 mg/kg p.o., blood): 18.8 (ng/mL)/(mg/kg) | AUC0-120h (individual mice) [1, 7]: 259,000 h*ng/mL | AUC0-120h/dose (individual mice) [1, 7]: 855 (h*ng/mL)/(mg/kg) and 1,290 (h*ng/mL)/(mg/kg) | Cmax (individual mice) [1, 7]: 4,180 ng/mL | Cmax/dose (individual mice) [1, 7]: 16.7 (ng/mL)/(mg/kg) and 20.9 (ng/mL)/(mg/kg) | AUC0-24h/dose (mean) [1, 8]: 422 (h*ng/mL)/(mg/kg) | Cmax/dose (mean) [1, 8]: 19.3 (ng/mL)/(mg/kg) | AUC0-24h (individual mice) [1, 9]: 22,572 h*ng/mL | AUC0-24h/dose (individual mice) [1, 9]: 451 (h*ng/mL)/(mg/kg) and 392 (h*ng/mL)/(mg/kg) | Cmax (individual mice) [1, 9]: 1,040 ng/mL | Cmax/dose (individual mice) [1, 9]: 17.8 (ng/mL)/(mg/kg) and 20.8 (ng/mL)/(mg/kg) | Tmax (individual mice) [1, 9]: 24 h | Cmax ([1]; NODscidIL2Rγ^null, 50 mg/kg, 4 days x 50 mg/kg p.o., after first dose, blood, read-out: Cmax (mean)): 964 ng/mL | Tmax ([1]; NODscidIL2Rγ^null, 50 mg/kg, 4 days x 50 mg/kg p.o., after first dose, blood, read-out: Tmax (mean)): 15 h | AUC(0-t) ([1]; NODscidIL2Rγ^null, 50 mg/kg, 4 days x 50 mg/kg p.o., mice M1, M2, read-out: AUC0-24h (individual mice)): 19.6 µg·h/mL | Cmax ([1]; NODscidIL2Rγ^null, 50 mg/kg, 4 days x 50 mg/kg p.o., mice M1, M2, read-out: Cmax (individual mice)): 888 ng/mL | Cmax ([1]; NODscidIL2Rγ^null, 100 mg/kg, 1 x 100 mg/kg p.o., blood, read-out: Cmax (mean)): 3350 ng/mL | Tmax ([1]; NODscidIL2Rγ^null, 100 mg/kg, 1 x 100 mg/kg p.o., blood, read-out: Tmax (mean)): 5 h | AUC(0-t) ([1]; NODscidIL2Rγ^null, 100 mg/kg, 1 x 100 mg/kg p.o., mice M1, M2, read-out: AUC0-120h (individual mice)): 239 µg·h/mL | Cmax ([1]; NODscidIL2Rγ^null, 100 mg/kg, 1 x 100 mg/kg p.o., mice M1, M2, read-out: Cmax (individual mice)): 3100 ng/mL | Tmax ([1]; NODscidIL2Rγ^null, 100 mg/kg, 1 x 100 mg/kg p.o., mice M1, M2, read-out: Tmax (individual mice)): 4 h | Cmax ([1]; NODscidIL2Rγ^null, 200 mg/kg, 1 x 200 mg/kg p.o., blood, read-out: Cmax (mean)): 3760 ng/mL | Tmax ([1]; NODscidIL2Rγ^null, 200 mg/kg, 1 x 200 mg/kg p.o., blood, read-out: Tmax (mean)): 4 h | AUC(0-t) ([1]; NODscidIL2Rγ^null, 200 mg/kg, 1 x 200 mg/kg p.o., mice M3, M4, read-out: AUC0-120h (individual mice)): 171 µg·h/mL | Cmax ([1]; NODscidIL2Rγ^null, 200 mg/kg, 1 x 200 mg/kg p.o., mice M3, M4, read-out: Cmax (individual mice)): 3340 ng/mL | Tmax ([1]; NODscidIL2Rγ^null, 200 mg/kg, 1 x 200 mg/kg p.o., mice M3, M4, read-out: Tmax (individual mice)): 4 h | AUC(0-t) ([1]; NODscidIL2Rγnull engrafted with human RBCs, 50 mg/kg, 4 x 50 mg/kg p.o., at 24 h after the first dose, read-out: AUC0-24h): 54 µM·h | AUC(0-t) ([1]; NODscidIL2Rγnull engrafted with human RBCs, 50 mg/kg, 4 days x 50 mg/kg p.o., after first dose, blood, read-out: AUC0-24h (mean)): 21.1 µg·h/mL | AUC(0-t) ([1]; NODscidIL2Rγnull engrafted with human RBCs, 100 mg/kg, 1 x 100 mg/kg p.o., blood, read-out: AUC0-120h (mean)): 250 µg·h/mL | AUC(0-t) ([1]; NODscidIL2Rγnull engrafted with human RBCs, 100 mg/kg, single dose 100 mg/kg p.o., read-out: AUC0-120h): 640 µM·h | AUC(0-t) ([1]; NODscidIL2Rγnull engrafted with human RBCs, 200 mg/kg, 1 x 200 mg/kg p.o., blood, read-out: AUC0-120h (mean)): 215 µg·h/mL | AUC(0-t) ([1]; NODscidIL2Rγnull engrafted with human RBCs, 200 mg/kg, single dose 200 mg/kg p.o., read-out: AUC0-120h): 550 µM·h | IC50 [2, 10]: 112 nM | IC50 [2, 11]: 392 nM | IC50 [3]: 5.5 nM | IC50 [4]: 22 ± 9 nM | IC50 [5]: 2.8 nM

Nc1ncnc2c1c(OC(F)F)nn2[C@@H]1O[C@H](COS(N)(=O)=O)[C@@H](O)[C@H]1O [ML901]
IC50 [2, 10]: 310 ± 60 nM | IC50 [2, 11]: 1660 ± 140 nM | IC50 [3]: 2.9 ± 0.9 nM
